Reference: PubChem BioAssay AID330 (DTP/NCI, 2004)
Values joined by “and” are separate entries in the source; they are usually repeats but may differ in a detail not shown here. Identical values can stand only once. Inconclusive results and toxic doses are left out. How the source made its calls: active means survival T/C of 150% or more; inactive means T/C below 125% in these data.

Tested on: P388 leukemia ip, CD2F1 mice, survival T/C
Assay: NCI In Vivo Anticancer Drug Screen. Data for tumor model P388 Leukemia (intraperitoneal) in CD2F1 (CDF1) mice
Details: endpoint: median survival time, higher = longer survival
In short: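 Mice carrying the transplanted tumor received test compound or vehicle. Survival was recorded in each group, and the value is the treated-group measurement divided by that of the vehicle-treated control group.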

[1] = dose: 50.0 mg/kg/injection, schedule: Q01DX009 (ip), vehicle: Klucel (hydroxypropylcellulose) (HPC)
[2] = dose: 100.0 mg/kg/injection, schedule: Q01DX009 (ip), vehicle: Klucel (hydroxypropylcellulose) (HPC)
[3] = dose: 200.0 mg/kg/injection, schedule: Q01DX009 (ip), vehicle: Klucel (hydroxypropylcellulose) (HPC)
[4] = dose: 50.0 mg/kg/injection, schedule: Q01DX005 (ip), vehicle: Klucel (hydroxypropylcellulose) (HPC)
[5] = dose: 12.5 mg/kg/injection, schedule: Q01DX005 (ip), vehicle: Klucel (hydroxypropylcellulose) (HPC)
[6] = dose: 25.0 mg/kg/injection, schedule: Q01DX005 (ip), vehicle: Klucel (hydroxypropylcellulose) (HPC)
[7] = dose: 25.0 mg/kg/injection, schedule: Q01DX009 (ip), vehicle: saline

Measured: T/C

O=C1CCC(=O)N1CO
inactive: dose: 37.5 mg/kg/injection, schedule: Q01DX009 (ip), vehicle: saline with Tween-80 107 % of control | dose: 75.0 mg/kg/injection, schedule: Q01DX009 (ip), vehicle: saline with Tween-80 120 % of control

CN(C)C1C(O)C2Oc3c(cc(O)c4c3C(=O)c3cc5c(c(O)c3C4=O)C(N=[N+]=N)CC(C)(O)C5)C(C)(O2)C1O (configuration not stated)
inactive: dose: 0.31 mg/kg/injection, schedule: Q01DX009 (ip), vehicle: other 107 % of control | dose: 0.62 mg/kg/injection, schedule: Q01DX009 (ip), vehicle: other 107 % of control | dose: 1.25 mg/kg/injection, schedule: Q01DX009 (ip), vehicle: other 108 % of control | dose: 10.0 mg/kg/injection, schedule: Q01DX009 (ip), vehicle: other 120 % of control

O=c1[nH]c(=O)c2n[nH]nc2[nH]1
inactive: dose: 100.0 mg/kg/injection, schedule: Q01DX009 (ip), vehicle: saline with Tween-80 86 % of control | dose: 100.0 mg/kg/injection, schedule: Q04DX003 (ip), vehicle: saline with Tween-80 90 % of control | dose: 200.0 mg/kg/injection, schedule: Q01DX009 (ip), vehicle: saline with Tween-80 100 % of control | dose: 200.0 mg/kg/injection, schedule: Q04DX003 (ip), vehicle: saline with Tween-80 90 % of control | dose: 400.0 mg/kg/injection, schedule: Q01DX009 (ip), vehicle: saline with Tween-80 95 % of control | dose: 400.0 mg/kg/injection, schedule: Q04DX003 (ip), vehicle: saline with Tween-80 100 % of control

CN(C(=O)C(=S)c1ccccc1)c1ccccc1
inactive: dose: 100.0 mg/kg/injection, schedule: Q04DX002 (ip), vehicle: saline 104 % of control | dose: 200.0 mg/kg/injection, schedule: Q04DX002 (ip), vehicle: saline 119 % of control | dose: 400.0 mg/kg/injection, schedule: Q04DX002 (ip), vehicle: saline 117 % of control

Cc1cc2cc3c(c(C(=O)O)c2o1)C(=O)c1ccc2ccccc2c1C3
inactive: dose: 60.0 mg/kg/injection, schedule: Q01DX005 (ip), vehicle: saline with Tween-80 97 % of control | dose: 120.0 mg/kg/injection, schedule: Q01DX005 (ip), vehicle: saline with Tween-80 101 % of control | dose: 240.0 mg/kg/injection, schedule: Q01DX005 (ip), vehicle: saline with Tween-80 94 % of control

COc1cccc(NC(=S)NCc2cccnc2)c1
inactive: [1] 101 % of control | [2] 91 % of control | [3] 111 % of control

CCCCCCCNN=NCC(C)C(C)CC (configuration not stated)
inactive: dose: 100.0 mg/kg/injection, schedule: Q04DX003 (ip), vehicle: saline 95 % of control | dose: 200.0 mg/kg/injection, schedule: Q04DX003 (ip), vehicle: saline 95 % of control | dose: 400.0 mg/kg/injection, schedule: Q04DX003 (ip), vehicle: saline 97 % of control

O=C(NCCCCCCNC(=O)C12CC3CC(CC(C3)C1)C2)C12CC3CC(CC(C3)C1)C2
inactive: [4] 92 % of control | dose: 100.0 mg/kg/injection, schedule: Q01DX005 (ip), vehicle: Klucel (hydroxypropylcellulose) (HPC) 92 % of control | dose: 200.0 mg/kg/injection, schedule: Q01DX005 (ip), vehicle: Klucel (hydroxypropylcellulose) (HPC) 90 % of control

CCNC(CC)CCCNc1cc(OC)cc2cccnc12 (configuration not stated)
inactive: dose: 6.25 mg/kg/injection, schedule: Q01DX005 (ip), vehicle: saline with Tween-80 106 % of control | dose: 12.5 mg/kg/injection, schedule: Q01DX005 (ip), vehicle: saline with Tween-80 98 % of control | dose: 25.0 mg/kg/injection, schedule: Q01DX005 (ip), vehicle: saline with Tween-80 102 % of control

COc1cc2nnn(-c3ccncc3)c2cc1OC
inactive: dose: 25.0 mg/kg/injection, schedule: Q01DX009 (ip), vehicle: other 100 % of control | dose: 50.0 mg/kg/injection, schedule: Q01DX009 (ip), vehicle: other 93 % of control | dose: 100.0 mg/kg/injection, schedule: Q01DX009 (ip), vehicle: other 99 % of control | dose: 200.0 mg/kg/injection, schedule: Q01DX009 (ip), vehicle: other 96 % of control | dose: 400.0 mg/kg/injection, schedule: Q01DX009 (ip), vehicle: other 96 % of control

Cc1ccc[n+](Cc2ccccc2Cl)c1
inactive: [5] 113 % of control | [6] 113 % of control | [4] 101 % of control

CC(C)=CCCC(=O)C(c1nc2n(c1O)C(=N)N=N2)c1nc2n(c1O)C(=N)N=N2 (configuration not stated)
inactive: dose: 60.0 mg/kg/injection, schedule: Q01DX005 (ip), vehicle: saline 95 % of control | dose: 120.0 mg/kg/injection, schedule: Q01DX005 (ip), vehicle: saline 97 % of control | dose: 240.0 mg/kg/injection, schedule: Q01DX005 (ip), vehicle: saline 97 % of control

O=C(c1ccccc1)C12CCC3CC(CC(C3)C1)C2
inactive: [1] 100 % of control | [2] 99 % of control | [3] 100 % of control

Nc1nc(Cl)c2nnn(C3CC(O)C(CO)C3)c2n1 (configuration not stated)
inactive: dose: 6.25 mg/kg/injection, schedule: Q01DX005 (ip), vehicle: Klucel (hydroxypropylcellulose) (HPC) 116 % of control | [5] 112 % of control | [6] 119 % of control | [4] 110 % of control

[Cl][Mn][Cl]
inactive: dose: 0.25 mg/kg/injection, schedule: Q01DX009 (ip), vehicle: saline 99 % of control | dose: 0.5 mg/kg/injection, schedule: Q01DX009 (ip), vehicle: saline 90 % of control and 97 % of control | dose: 1.0 mg/kg/injection, schedule: Q01DX009 (ip), vehicle: saline 100 % of control | dose: 2.0 mg/kg/injection, schedule: Q01DX009 (ip), vehicle: saline 88 % of control and 94 % of control | dose: 4.0 mg/kg/injection, schedule: Q01DX009 (ip), vehicle: suspension in saline 119 % of control | dose: 8.0 mg/kg/injection, schedule: Q01DX009 (ip), vehicle: saline 90 % of control | dose: 8.0 mg/kg/injection, schedule: Q01DX009 (ip), vehicle: suspension in saline 97 % of control | dose: 16.0 mg/kg/injection, schedule: Q01DX009 (ip), vehicle: saline 100 % of control | dose: 16.0 mg/kg/injection, schedule: Q01DX009 (ip), vehicle: suspension in saline 116 % of control | dose: 32.0 mg/kg/injection, schedule: Q01DX009 (ip), vehicle: suspension in saline 119 % of control | dose: 64.0 mg/kg/injection, schedule: Q01DX009 (ip), vehicle: saline 100 % of control and 106 % of control | dose: 64.0 mg/kg/injection, schedule: Q01DX009 (ip), vehicle: suspension in saline 97 % of control

COc1ccc(NC(C)=NC(C)C)cc1
inactive: dose: 12.5 mg/kg/injection, schedule: Q01DX009 (ip), vehicle: saline with Tween-80 101 % of control and 88 % of control | dose: 25.0 mg/kg/injection, schedule: Q01DX009 (ip), vehicle: saline with Tween-80 92 % of control | dose: 50.0 mg/kg/injection, schedule: Q01DX009 (ip), vehicle: saline + Tween-80 + alcohol 98 % of control | dose: 50.0 mg/kg/injection, schedule: Q01DX009 (ip), vehicle: saline with Tween-80 100 % of control and 101 % of control

Cc1ccccc1-n1c(=S)n(-c2ccccn2)c2nc3ccccc3nc1/c2=N/Nc1ccccn1
inactive: dose: 50.0 mg/kg/injection, schedule: Q01DX005 (ip), vehicle: saline with Tween-80 110 % of control | dose: 100.0 mg/kg/injection, schedule: Q01DX005 (ip), vehicle: saline with Tween-80 97 % of control

CN=C(N)N/N=C(\c1ccccc1)c1cc(Cl)c(O)c(Cl)c1
inactive: dose: 25.0 mg/kg/injection, schedule: Q04DX002 (ip), vehicle: saline with Tween-80 101 % of control | dose: 50.0 mg/kg/injection, schedule: Q04DX002 (ip), vehicle: saline with Tween-80 100 % of control | dose: 100.0 mg/kg/injection, schedule: Q04DX002 (ip), vehicle: saline with Tween-80 100 % of control | dose: 200.0 mg/kg/injection, schedule: Q04DX002 (ip), vehicle: saline with Tween-80 104 % of control | dose: 400.0 mg/kg/injection, schedule: Q04DX002 (ip), vehicle: saline with Tween-80 103 % of control

Cc1nn(CCO)c(-c2ccccc2)c1-n1on1-c1c(C)nn(CCO)c1-c1ccccc1
inactive: [7] 97 % of control | dose: 50.0 mg/kg/injection, schedule: Q01DX009 (ip), vehicle: saline 98 % of control | dose: 100.0 mg/kg/injection, schedule: Q01DX009 (ip), vehicle: saline 98 % of control

O=C(OC1(c2nccc3ccccc23)CCN(CCc2ccccc2)CC1)c1ccccc1
inactive: dose: 6.25 mg/kg/injection, schedule: Q01DX009 (ip), vehicle: saline 105 % of control | dose: 12.5 mg/kg/injection, schedule: Q01DX009 (ip), vehicle: saline 99 % of control | [7] 97 % of control
